Experimental data: the RepoRT retention time repository

Assay: Waters ACQUITY UPLC BEH Shield RP18, 100 × 2.1 mm, 1.7 µm, 40 °C, 0.4 mL/min, estimated dead time 0.55 min; A: water + 0.1% formic acid; B: acetonitrile; gradient (min/%B) 0/2 10/18 15/28 22/40 32/67
Conditions: stereoisomer not certain

SMILES	LC retention time [min]
COc1ccc(-c2coc3cc(OC4OC(CO)C(O)C(O)C4OC4OCC(O)(CO)C4O)ccc3c2=O)cc1 (configuration not stated)	12.2
CC1(C(=O)O)CCC2(C)CCC3(C)C(=CC(=O)C4C5(C)CCC(O)C(C)(C)C5CCC43C)C2C1 (configuration not stated)	29.2
O=C1CC(c2ccc(O)cc2)Oc2cc(OC3OC(CO)C(O)C(O)C3O)ccc21 (configuration not stated)	9.18
COc1ccc(-c2coc3cc(OC4OC(CO)C(O)C(O)C4O)ccc3c2=O)cc1 (configuration not stated)	12.3
O=C(C=Cc1ccc(OC2OC(CO)C(O)C(O)C2OC2OCC(O)(CO)C2O)cc1)c1ccc(O)cc1O (configuration not stated)	14
O=C(O)CC(C(=O)O)c1ccc(O)cc1 (configuration not stated)	4.34
O=C1CC(c2ccc(OC3OC(CO)C(O)C(O)C3OC3OCC(O)(CO)C3O)cc2)Oc2cc(O)ccc21 (configuration not stated)	10.2
CC12CC(OC1=O)C1(C)CCC3(C)C(=CC(=O)C4C5(C)CCC(OC6OC(C(=O)O)C(O)C(O)C6OC6OC(C(=O)O)C(O)C(O)C6O)C(C)(C)C5CCC43C)C1C2 (configuration not stated)	19.8
COc1cc2oc(-c3ccc(O)c(CC=C(C)C)c3)c(O)c2cc1OC	24.8
CC1(C)C=Cc2c(ccc(-c3coc4cc(O)cc(O)c4c3=O)c2O)O1	26.9
O=C(C=Cc1ccc(O)cc1)c1ccc(OC2OC(CO)C(O)C(O)C2O)cc1O (configuration not stated)	14.5
O=C1CC(c2ccc(OC3OC(CO)C(O)C(O)C3O)cc2)Oc2cc(O)ccc21 (configuration not stated)	9.89
CC(=O)OC1CC(C)(C(=O)O)CC2C3=CC(=O)C4C5(C)CCC(OC6OC(C(=O)O)C(O)C(O)C6OC6OC(C(=O)O)C(O)C(O)C6O)C(C)(CO)C5CCC4(C)C3(C)CCC12C (configuration not stated)	17.8
O=C(C=Cc1ccc(OC2OC(CO)C(O)C(O)C2O)cc1)c1ccc(O)cc1O (configuration not stated)	14.3
COc1cc(O)c2c(=O)c(OC)c(-c3ccc(O)cc3)oc2c1	15.1
C=CC(C)(C)c1cc(C=CC(=O)c2ccc(O)cc2)c(OC)cc1O	26.3

SMILES	LC retention time [min]
COc1cc(O)cc2oc(=O)c(-c3ccc(O)cc3O)cc12	19.9
CC(C)=CCc1cc(-c2cc(=O)c3c(O)cc(O)cc3o2)cc(O)c1O	24.9
COc1c(CC=C(C)C)c(O)cc2c1CC(c1ccc(O)c(CC=C(C)C)c1O)CO2 (configuration not stated)	28.7
CC(C)=CCc1c(O)cc2oc(-c3ccc(O)cc3)c(O)c(=O)c2c1O	28.1
COc1ccc(-c2coc3cc(O)ccc3c2=O)cc1	19
CC1(CO)CC(O)C2(C)CCC3(C)C(=CC(=O)C4C5(C)CCC(OC6OC(C(=O)O)C(O)C(O)C6OC6OC(C(=O)O)C(O)C(O)C6O)C(C)(C)C5CCC43C)C2C1 (configuration not stated)	16.8
CC1(C(=O)OC2OC(CO)C(O)C(O)C2O)CCC2(C)CCC3(C)C(=CC(=O)C4C5(C)CCC(OC6OC(C(=O)O)C(O)C(O)C6OC6OC(C(=O)O)C(O)C(O)C6O)C(C)(C)C5CCC43C)C2C1 (configuration not stated)	17.4
CC1(C(=O)O)CCC2(C)CCC3(C)C(=CC(=O)C4C5(C)CCC(OC6OC(C(=O)O)C(O)C(O)C6OC6OC(C(=O)O)C(O)C(O)C6O)C(C)(CO)C5CCC43C)C2C1 (configuration not stated)	20.7
COc1ccc(-c2coc3cc(O)ccc3c2=O)cc1O	15.1
O=C1CC(c2ccc(OC3OC(CO)C(O)C(O)C3O)cc2)Oc2cc(OC3OC(CO)C(O)C(O)C3O)ccc21 (configuration not stated)	6.01
O=c1cc(-c2ccc(O)cc2)oc2c(C3OCC(O)C(O)C3O)c(O)c(C3OC(CO)C(O)C(O)C3O)c(O)c12 (configuration not stated)	8.56
O=C1CC(c2ccc(O)cc2)Oc2cc(O)ccc21 (configuration not stated)	14.6
COc1c(CC=C(C)C)c(O)cc2oc(=O)c3c4ccc(O)cc4oc3c12	27.2
CC1(C(=O)O)CCC2(C)CCC3(C)C(=C2C1)C=CC1C2(C)CCC(OC4OC(C(=O)O)C(O)C(O)C4OC4OC(C(=O)O)C(O)C(O)C4O)C(C)(CO)C2CCC13C (configuration not stated)	22.3
COc1cc(O)c(-c2coc3cc(O)ccc3c2=O)c(OC)c1CC=C(C)C	24.1
CC(C)=CCc1cc(-c2oc3cc(O)cc(O)c3c(=O)c2O)ccc1O	26.1
